Experimental data published in patent US20120264796A1, “METHODS FOR MODULATING CIRCADIAN RHYTHMS” (THE SALK INSTITUTE FOR BIOLOGICAL STUDIES, priority 2009, published 2012).

Columns and labels:
Assay type in all cases: cell-based
[1] = test system: ampkα1−/−; ampkα2−/− (AMPK−/−) mouse embryonic fibroblasts; assay: Circadian reverbα and dbp expression by quantitative PCR in serum-stimulated MEFs lacking AMPK; conditions: 25 mM glucose supplemented with 1 mM AICAR
Method: (§1) (A) Unsynchronized paired wild type (AMPK^+/+) or ampkα1^−/−; ampkα2^−/− (AMPK−/−) mouse embryonic fibroblasts were stimulated by 2 hour exposure to 50% horse serum followed by transfer to media containing 25 mM glucose, 0.5 mM glucose or 25 mM glucose supplemented with 1 mM AICAR. Quantitative PCR analysis was performed using cDNA samples collected at the indicated times following stimulation. Data represent the mean of two independent experiments, each analyzed in triplicate. (B) Fibroblasts stably expressing Bmal1-luciferase were cultured in media containing the indicated amounts of glucose with or without 2 mM AICAR. Typical results of continuous monitoring of luciferase activity are shown. (C and D) Quantitation of the circadian period (C) and amplitude (D) of Bmal1-driven luciferase activity from experiments performed as described in (B). Data in (C) and (D) represent the mean±standard deviation for four samples per condition. […]
(§2) FIG. 4A-B show disruption of AMPK alters circadian rhythms in MEFs. […] Quantitative PCR analysis was performed using cDNA samples prepared from lysates collected at the indicated times following stimulation. Data represent the mean±standard deviation of two or three independent experiments each analyzed in triplicate. […]

[2] = test system: wild type (AMPK+/+) mouse embryonic fibroblasts; assay: Circadian reverbα and dbp expression by quantitative PCR in serum-stimulated wild type fibroblasts; conditions: 25 mM glucose supplemented with 1 mM AICAR, after 2 hour 50% horse serum, compared with 0.5 mM glucose
Method: as §1, §2

[3] = test system: Fibroblasts stably expressing Bmal1-luciferase; assay: Continuous monitoring of Bmal1-driven luciferase activity in fibroblasts; conditions: media with 2 mM AICAR vs 25 mM glucose
Method: (A) Unsynchronized paired wild type (AMPK^+/+) or ampkα1^−/−; ampkα2^−/− (AMPK−/−) mouse embryonic fibroblasts were stimulated by 2 hour exposure to 50% horse serum followed by transfer to media containing 25 mM glucose, 0.5 mM glucose or 25 mM glucose supplemented with 1 mM AICAR. Quantitative PCR analysis was performed using cDNA samples collected at the indicated times following stimulation. Data represent the mean of two independent experiments, each analyzed in triplicate. (B) Fibroblasts stably expressing Bmal1-luciferase were cultured in media containing the indicated amounts of glucose with or without 2 mM AICAR. Typical results of continuous monitoring of luciferase activity are shown. (C and D) Quantitation of the circadian period (C) and amplitude (D) of Bmal1-driven luciferase activity from experiments performed as described in (B). Data in (C) and (D) represent the mean±standard deviation for four samples per condition. ANOVA analysis indicated a significant difference between categories. ** P<0.01 vs. samples cultured in 25 mM glucose in Scheffe's post-hoc analysis.
The Bmal1 promoter is repressed by REVERBα. Therefore, the effects of reducing glucose availability on circadian rhythms was examined using fibroblasts stably expressing luciferase under the control of a Bmal1 promoter. […]

## NC(=O)c1ncn([C@@H]2O[C@H](CO)[C@@H](O)[C@H]2O)c1N [AICAR, 5-amino-4-imidazolecarboxamide riboside]
[1]
  expression of reverbα and dbp: neither glucose deprivation nor AICAR treatment affected the expression of reverbα and dbp
[2]
  amplitude of circadian reverbα and dbp expression: mimicked the effects of glucose deprivation
[3]
  amplitude of Bmal1-luciferase expression: decreased the amplitude of Bmal1-luciferase expression
